Converted amounts (≈) assume the structure as drawn. The source made the active and inactive calls. The calls are words filed in the database; no cut-off is given here.
Tests used:
[1] = tested on: Enterococcus faecalis; assay: Antibacterial activity against Enterococcus faecalis ATCC 29212 by broth microdilution method; type: functional
[2] = tested on: Staphylococcus aureus; assay: Antibacterial activity against Staphylococcus aureus ATCC 29213 by broth microdilution method; type: functional
[3] = tested on: Enterococcus faecium; assay: Antibacterial activity against Enterococcus faecium ET60 by broth microdilution method; type: functional
[4] = tested on: Staphylococcus aureus; assay: Antibacterial activity against methicillin-resistant Staphylococcus aureus SA88 by broth microdilution method; type: functional
[5] = tested on: Enterococcus faecalis; assay: Antibacterial activity against Streptococcus faecalis by broth microdilution method; type: functional
[6] = tested on: Staphylococcus aureus; assay: Antibacterial activity against methicillin-resistant Staphylococcus aureus SA11 by broth microdilution method; type: functional
[7] = tested on: Staphylococcus aureus; assay: Antibacterial activity against methicillin-resistant Staphylococcus aureus SA14 by broth microdilution method; type: functional
[8] = tested on: Staphylococcus aureus; assay: Antibacterial activity against methicillin-resistant Staphylococcus aureus SA86 by broth microdilution method; type: functional
[9] = tested on: Enterococcus faecium; assay: Antibacterial activity against Enterococcus faecium ET6 by broth microdilution method; type: functional
[10] = tested on: Staphylococcus aureus; assay: Antibacterial activity against Staphylococcus aureus USA300 infected in Balb/c mouse model of sepsis assessed as mouse survival at 0.925 mg/kg, sc administered twice daily for 5 days starting from 1 hr post-infection relative to control; type: functional
[11] = tested on: Staphylococcus aureus; assay: Antibacterial activity against methicillin-resistant Staphylococcus aureus ATCC 33591 infected in iv dosed CD-1 ICR mouse administered as single dose measured after 7 days; type: functional; settings: ATCC 33591, iv, 168 h
[12] = tested on: Enterococcus faecalis; assay: Antibacterial activity against Enterococcus faecalis ATCC 29212 assessed as mutation prevention concentration measured after 72 hrs; type: functional; settings: ATCC 29212, 72 h
[13] = tested on: Staphylococcus aureus; assay: Bactericidal activity against Staphylococcus aureus ATCC 29213 incubated prior to replating on agar plate measured after overnight incubation; type: functional
[14] = tested on: Staphylococcus aureus; assay: Antibacterial activity against Staphylococcus aureus ATCC 29213 assessed as mutation prevention concentration measured after 72 hrs; type: functional; settings: ATCC 29213, 72 h
[15] = tested on: Enterococcus faecalis; assay: Antibacterial activity against Enterococcus faecalis T1027 infected in Galleria mellonella larvae assessed as larvae survival at 50 mg/kg measured at 96 hrs post-infection relative to control; type: functional; settings: T1027, 96 h
[16] = tested on: Enterococcus faecalis; assay: Bactericidal activity against Enterococcus faecalis ATCC 29212 incubated prior to replating on agar plate measured after overnight incubation; type: functional
[17] = tested on: Enterococcus faecalis; assay: Antibacterial activity against Enterococcus faecalis ZS129 infected in Galleria mellonella larvae assessed as larvae survival at 50 mg/kg measured at 96 hrs post-infection relative to control; type: functional; settings: ZS129, 96 h
[18] = tested on: Staphylococcus aureus; assay: Antibacterial activity against methicillin-resistant Staphylococcus aureus 0114 infected in iv dosed CD-1 ICR mouse administered as single dose measured after 7 days; type: functional; settings: Staphylococcus aureus, 0114, iv, 168 h
[19] = tested on: Enterococcus faecalis; assay: Bactericidal activity against Enterococcus faecalis ATCC 29212 assessed as reduction in bacterial load at 4 to 16 ug/ml preincubated for up to 24 hrs followed by subculturing on LB agar plate by time-kill assay; type: functional, organism-based
[20] = tested on: Staphylococcus aureus; assay: Bactericidal activity against Staphylococcus aureus ATCC 29213 assessed as reduction in bacterial load at 4 to 8 ug/ml preincubated for up to 24 hrs followed by subculturing on LB agar plate by time-kill assay; type: functional, organism-based
[21] = tested on: Enterococcus faecalis; assay: Antibacterial activity against daptomycin-resistant Enterococcus faecalis T1027 infected in NIH mouse model of neutropenic thigh infection assessed reduction in bacterial level in thigh at 50 mg/kg, sc administered at 2 and 12 hrs post infection and measured at 48 to 60 hrs post-infection; type: functional, organism-based
[22] = tested on: Staphylococcus aureus; assay: Antibacterial activity against Staphylococcus aureus USA300 infected in Balb/c mouse model of sepsis assessed as bacterial eradication in kidney at 1.25 mg/kg, sc administered twice daily for 3 days starting from 1 hr post-infection followed by subculturing on LB agar plate and measured after overnight incubation; type: functional, organism-based
[23] = tested on: Staphylococcus aureus; assay: Antibacterial activity against daptomycin-resistant Staphylococcus aureus SA11 infected in Galleria mellonella larvae assessed as increase in larvae survival at 50 mg/kg measured up to 72 hrs post-infection; type: functional, organism-based
[24] = tested on: Staphylococcus aureus; assay: Induction of cell membrane integrity disruption in Staphylococcus aureus ATCC 29213 at 8 ug/ml measured after 0.5 to 2 hrs by SYTOX green staining based fluorescence assay; type: organism-based
[25] = tested on: Staphylococcus aureus; assay: Bactericidal activity against Staphylococcus aureus ATCC 29213 assessed as reduction in bacterial load at 16 ug/ml preincubated for 24 hrs followed by subculturing on LB agar plate by time-kill assay; type: functional, organism-based
[26] = tested on: Enterococcus faecalis; assay: Induction of cell membrane integrity disruption in Enterococcus faecalis ATCC 29212 at 8 to 32 ug/ml measured after 0.5 to 2 hrs by SYTOX green staining based fluorescence assay; type: organism-based
[27] = tested on: Enterococcus faecalis; assay: Antibacterial activity against Enterococcus faecalis ATCC 29212 at sub-MIC after 7 serial passages by broth microdilution method; type: functional, organism-based
[28] = tested on: Enterococcus faecalis; assay: Induction of cell membrane integrity disruption in Enterococcus faecalis ATCC 29212 at 16 ug/ml measured after 1 hr by SYTOX green staining based confocal laser scanning microscopic analysis; type: organism-based
[29] = tested on: Staphylococcus aureus; assay: Antibacterial activity against daptomycin-resistant Staphylococcus aureus SA11 infected in NIH mouse model of neutropenic thigh infection assessed reduction in bacterial level in thigh at 50 mg/kg, sc administered at 2 and 12 hrs post infection and measured at 48 to 60 hrs post-infection; type: functional, organism-based
[30] = tested on: Staphylococcus aureus; assay: Antibacterial activity against Staphylococcus aureus ATCC 29213 at sub-MIC after 7 serial passages by broth microdilution method; type: functional, organism-based
[31] = tested on: Staphylococcus aureus; assay: Antibacterial activity against methicillin-resistant Staphylococcus aureus ATCC 43300 infected in Galleria mellonella larvae assessed as increase in larvae survival at 50 mg/kg measured up to 72 hrs post-infection; type: functional, organism-based
[32] = tested on: HEK293; assay: Cytotoxicity against HEK293 cells assessed as reduction in cell viability at >= 20 mg/ml measured after 24 hrs by MTT assay; type: cell-based; settings: human, hek293, 24 h
[33] = Aqueous solubility of the compound in 0.9% NaCl at >= 100 measured after 15 mins; type: physicochemical; settings: buffer, 0.25 h
[34] = tested on: Erythrocyte; assay: Hemolytic activity against rat RBC at 320 ug/ml measured after 1 hr; type: ADME, cell-based

In the case of `CCCCCCCCCC(=O)N[C@@H](Cc1c[nH]c2ccccc12)C(=O)N[C@@H](CC(N)=O)C(=O)N[C@@H](CC(=O)O)C(=O)N[C@@H]1C(=O)N(C)CC(=O)N[C@@H](CCCN)C(=O)N[C@@H](CC(=O)O)C(=O)N[C@H](C)C(=O)N[C@@H](CC(=O)O)C(=O)NCC(=O)N[C@H](CO)C(=O)N[C@@H]([C@H](C)CC(=O)O)C(=O)N[C@@H](CC(=O)c2ccccc2N)C(=O)O[C@@H]1C`, the MIC [1] is reported as 8 µg/mL (≈ 4.89 µM), the MIC [2] is reported as 0.5 µg/mL (≈ 0.306 µM) and the MIC [3] is reported as 4 µg/mL (≈ 2.45 µM). It also gave an MIC [4] of 0.5 µg/mL (≈ 0.306 µM), an MIC [5] of 2 µg/mL (≈ 1.22 µM) and an MIC [6] of 0.5 µg/mL (≈ 0.306 µM). For the same molecule, the MIC [7] was 0.25 µg/mL (≈ 0.153 µM), the MIC [8] was 0.5 µg/mL (≈ 0.306 µM) and the MIC [9] was 8 µg/mL (≈ 4.89 µM).
Molecule `CCCCCCCCCC(=O)N[C@@H](Cc1c[nH]c2ccccc12)C(=O)N[C@H](CC(N)=O)C(=O)N[C@@H](CC(=O)O)C(=O)N[C@@H]1C(=O)NCC(=O)N[C@@H](CCCN)C(=O)N[C@@H](CC(=O)O)C(=O)N[C@H](C)C(=O)N[C@@H](CC(=O)O)C(=O)NCC(=O)N[C@H](CO)C(=O)N[C@@H]([C@H](C)CC(=O)O)C(=O)N[C@@H](CC(=O)c2ccccc2NC)C(=O)O[C@@H]1C` has an MIC [1] of 1 µg/mL (≈ 0.612 µM), a survival at 0.925 mg/kg [10] of 100% and an MIC [2] of 0.25 µg/mL (≈ 0.153 µM). It also gave an ED50 [11] of 1.38 mg/kg, an MPC [12] of 16 µg/mL and an MBC [13] of 0.06 µg/mL (≈ 0.0367 µM). For the same molecule, the MPC [14] was 8 µg/mL, the MIC [3] was 1 µg/mL (≈ 0.612 µM) and the survival at 50 mg/kg [15] was 60%. It also gave an MIC [4] of 0.25 µg/mL (≈ 0.153 µM), an MBC [16] of 4 µg/mL (≈ 2.45 µM) and a survival at 50 mg/kg [17] of 40%. It also gave an ED50 [18] of 1.65 mg/kg, an MIC [5] of 0.5 µg/mL (≈ 0.306 µM) and an MIC [6] of 0.5 µg/mL (≈ 0.306 µM). The MIC [7] was 0.25 µg/mL (≈ 0.153 µM), the MIC [8] was 0.25 µg/mL (≈ 0.153 µM) and the MIC [9] was 1 µg/mL (≈ 0.612 µM).
With `CCCCCCCCCC(=O)N[C@@H](Cc1c[nH]c2ccccc12)C(=O)N[C@@H](CC(N)=O)C(=O)N[C@@H](CC(=O)O)C(=O)N[C@@H]1C(=O)NCC(=O)N[C@@H](CCCN)C(=O)N[C@@H](CC(=O)O)C(=O)N[C@H](C)C(=O)N[C@@H](CC(=O)O)C(=O)NCC(=O)N[C@H](CO)C(=O)N[C@@H]([C@H](C)CC(=O)O)C(=O)N[C@@H](CC(=O)c2ccccc2NC)C(=O)O[C@@H]1C` the Activity [19] was “Active”, the Activity [20] was “Active” and the Activity [21] was “Active”. For the same molecule, the Activity [22] was “Active”, the Activity [23] was “Active” and the Activity [24] was “Active”. For the same molecule, the Activity [25] was “Active”, the Activity [26] was “Active” and the Activity [27] was “inactive”. For the same molecule, the Activity [28] was “Active”, the Activity [29] was “Active” and the Activity [30] was “Active”. For the same molecule, the Activity [31] was “Active”.
With `CCCCCCCCCC(=O)N[C@@H](Cc1c[nH]c2ccccc12)C(=O)N[C@H](CC(N)=O)C(=O)N[C@@H](CC(=O)O)C(=O)N[C@@H]1C(=O)NCC(=O)N[C@@H](CCCN)C(=O)N[C@@H](CC(=O)O)C(=O)N[C@H](C)C(=O)N[C@@H](CC(=O)O)C(=O)NCC(=O)N[C@H](CO)C(=O)N[C@@H]([C@@H](C)CC(=O)O)C(=O)N[C@@H](CC(=O)c2ccccc2N)C(=O)O[C@@H]1C` the Activity [32] was “Toxic”, the solubility [33] was “Soluble” and the Activity [34] was “Non-Toxic”.
